This is an account of results in paper PMC9841532, “Exploring the Effect of Halogenation in a Series of Potent and Selective A2B Adenosine Receptor Antagonists” (Journal of Medicinal Chemistry, 2022).

In series [1] the target is T1, hA2BAR (Homo sapiens, UniProt P29275).
T1 construct: host or cells: HEK-293 (HEK-293-A2B) cell membranes
T1 sequence (P29275 1-332): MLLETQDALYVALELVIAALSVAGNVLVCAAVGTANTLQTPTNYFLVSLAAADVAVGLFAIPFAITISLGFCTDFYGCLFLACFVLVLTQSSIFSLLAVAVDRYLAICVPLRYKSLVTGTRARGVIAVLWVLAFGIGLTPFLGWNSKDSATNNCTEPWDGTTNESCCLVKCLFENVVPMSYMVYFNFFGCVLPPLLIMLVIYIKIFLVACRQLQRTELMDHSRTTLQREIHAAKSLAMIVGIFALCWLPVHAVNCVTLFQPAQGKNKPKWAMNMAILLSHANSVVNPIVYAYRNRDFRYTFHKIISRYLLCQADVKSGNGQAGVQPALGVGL
In words: Radioligand binding competition, [3H]DPCPX, membranes from HEK-293-A2B cells. Details: Exp. dG: unit not given here. The conditions noted are these: for Ki: read-out: Ki hA2B; for Exp. dG: experimental binding free energy, Supplementary Table S3, unit not given (errors in kcal/mol). The procedure, abridged: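 Racemates, plus selected enantiomers after chiral resolution, were tested at 25 °C, with a 60 min incubation for one subtype and 30 min for others. Non-specific binding was defined with 10 μM or 100 μM R-PIA. Bound radioactivity was counted after washing and filtration.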

Series [2] has as its target T2, A2BAR (Homo sapiens, UniProt P29275).
T2 construct: expressed in transfected cells; host or cells: HEK-293 T cells permanently expressing pRK5-A2BAR^SNAP
T2 sequence (P29275 1-332): T1 sequence (P29275 1-332)
In words: cAMP accumulation assay in HEK-293 cells permanently expressing A2BAR-SNAP. The format is cell-based. The conditions noted are these: read-out: KB (hA2B). Here is the method: To assess their ability to block A2BAR agonist intrinsic activity, the effect on A2BAR-mediated cAMP accumulation and cellular impedance was evaluated. To this end, we used HEK-293 cells permanently expressing the A2BAR^SNAP construct, which can be visualized upon staining the cells with a SNAP-fluorescent substrate.
Scale bar: […]. […] Data are expressed as mean ± SEM (n = 4).
cAMP accumulation was measured using the LANCE Ultra cAMP kit (PerkinElmer, Waltham, Massachusetts, USA) as previously described.[55] […] The 384-well plate was incubated 1 h at 22 °C in the dark and was then read on a CLARIOstar Microplate Reader (BMG Labtech, Durham, North Carolina, USA). […] Data were fitted by non-linear regression using GraphPad Prism 9 (San Diego, California, USA).
A general note: cAMP levels reflect the balance of adenylyl cyclase and phosphodiesterase activity.

In series [3] the target is T2, A2BAR. Put plainly: Cellular impedance label-free assay (xCELLigence) in A2BAR-SNAP cells. The format is cell-based. The conditions noted are these: compound 1 μM, NECA 1 μM, 45 min, n = 4. The text has this: To further evaluate the ability of 16b, 16j, 16r, and 16s to preclude A2BAR function in living cells, we took advantage of the cellular impedance label-free method, a widely accepted morphological and functional biosensor of cell status.[39] Accordingly, whole-cell NECA-mediated impedance responses of A2BAR^SNAP cells were monitored in real time in the absence or presence of 16b, 16j, 16r, and 16s.
Figure 4 Blockade of A2BAR-mediated whole-cell label-free responses. (A) Representative example of the impedance signal obtained over the time upon incubation with A2BAR ligands. […] (B) The area under the curve (AUC) derived from the normalized cell index (NCI) shown in (A) was calculated for each condition. Data are expressed as mean ± SEM (n = 4). ***P < 0.001 and **P < 0.01, one-way ANOVA with a Dunnett’s multiple-comparison test when compared to vehicle (Veh).
The xCELLigence RTCA system (Roche) was employed to assess the impact of blocking A2BAR-mediated effects in cellular impedance upon receptor activation, as previously described.[57]−[60] To this end, A2BAR^SNAP cells were growth in 16-well E-plates (Roche), using DMEM supplemented with 1 mM sodium pyruvate, 2 mM L-glutamine, 100 U/mL streptomycin, […] penicillin, and 1.5% (v/v) fetal bovine serum in the presence of 0.5 U/mL of ADA. Of note, wells were previously coated with 50 μL fibronectin (10 μg/mL; Sigma-Aldrich) and the background index for each well was determined with supplemented DMEM (90 μL) in the absence of cells. Subsequently, A2BAR^SNAP cells (90 μL) were plated at a cell density of 10,000 cells/well and grown for 18 h in the RTCA SP device station (Roche) at 37 °C in an atmosphere of 5% CO2. Then, before ligand addition, cell index values were normalized to the same time point using the RTCA software, providing the normalized cell index (NCI). After ligand stimulation, NCI was recorded every 15 s for a total time of at least 45 min. The area under the curve (AUC) for every condition was calculated using GraphPad Prism 9.

Series [4] can be described thus: Human microsomal stability. The conditions noted are these: human microsomes; for microsomal stability percent (percentage remanent): sampling time 60 min; for microsomal CLint at 1 h / half-life at 1 h: human, pH 7.4; for microsomal CLint at 1 h: read-out: microsomal stability Clint (intrinsic clearance); for half-life at 1 h: read-out: microsomal stability t1/2. In kind it is in vitro ADME. The protocol: The human microsomal stability of selected compounds was evaluated by following a previously described method.[31] The human microsomes employed were purchased from Tebu-Xenotech. The compound was incubated with the microsomes at 37 °C in a 50 mM phosphate buffer (pH = 7.4) containing 3 mM MgCl2, 1 mM NADP, 10 mM glucose-6-phosphate, and 1 U/mL glucose-6-phosphate-dehydrogenase. Samples (75 μL) were taken from each well at 0, 10, 20, 40, and 60 min and transferred to a plate containing 4 °C 75 μL acetonitrile and 30 μL of 0.5% formic acid in water was added for improving the chromatographic conditions. The plate was centrifuged (46,000 g, 30 min), and supernatants were taken and analyzed in a UPLC-MS/MS (Xevo TQD, Waters) by employing a BEH C18 column and an isocratic gradient of 0.1% formic acid in water:0.1% formic acid acetonitrile (60:40). The metabolic stability of the compounds was calculated from the logarithm of the remaining compounds at each of the time point studied.

The mark [5] stands for this setting: displacement of specific [3H]DPCPX binding in human HEK-293 cells, n = 3.

The structures appear in SMILES notation. Where two headings read alike, the source gives them in different places. Where only a bound is given, the exact number is not on record here.

Usually Ki stands for a dissociation constant, usually derived from enzyme kinetics or from competition with a known ligand. In general, microsomal CLint refers to the capacity of the preparation to metabolise the compound, expressed as a volume cleared per time. Turning to `CC1=C(C(=O)OC(C)C)C(c2ccco2)n2c(nc3cc(F)ccc32)N1` (centres unmarked) [16b], in series [1] (setting [5]), the Ki came to 3.05 ± 0.7 nM. Besides, in series [1], the “Exp. dG” value is recorded as -11.61 and the Ki was under 10 nM. Also, in series [2], the Kb was 0.8 ± 0.2 nM. In series [3], the “Blockade of NECA-induced changes in cellular impedance (AUC of normalized cell index)” value is on record as “significantly blocked”. Also, in series [4], the “microsomal stability percent (percentage remanent)” value (“microsomal stability percent” below) turned out to be 19.83%, the microsomal CLint at 1 h came to 20.1 µL/min/mg and the half-life at 1 h was 27.4 min.
In the case of `CC1=C(C(=O)OC(C)C)C(c2ccco2)n2c(nc3cc(Cl)ccc32)N1` (centres unmarked) [16j], in series [1] (setting [5]), the Ki came out at 5.03 ± 0.3 nM. Further, in series [1], the “Exp. dG” value is given as -11.31 and the Ki is under 10 nM. Moreover, in series [2], the Kb was 0.6 ± 0.2 nM. Further, the “Blockade of NECA-induced changes in cellular impedance (AUC of normalized cell index)” value in series [3] was “significantly blocked”. Further, in series [4], the “microsomal stability percent” value is 22.75%, the microsomal CLint at 1 h was 18.6 µL/min/mg and the half-life at 1 h came to 28.1 min.
In the case of `CC1=C(C(=O)OC(C)C)C(c2ccco2)n2c(nc3cc(Br)ccc32)N1` (centres unmarked) [16r], in series [1] (setting [5]), the Ki amounted to 5.23 ± 0.4 nM. Moreover, in series [1], the Ki is under 10 nM. For the same molecule, the Kb in series [2] was found to be 1.7 ± 0.6 nM. Also, the “Blockade of NECA-induced changes in cellular impedance (AUC of normalized cell index)” value in series [3] was “significantly blocked”. Also, in series [4], the “microsomal stability percent” value amounted to 32.13%, the microsomal CLint at 1 h was 14.2 µL/min/mg and the half-life at 1 h worked out at 36.8 min.
